Calls of active or inactive are those of the source.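 Rule for the calls: active = clearly stronger inhibition of the target kinase than of the helper enzymes tested alone in a counter assay; inactive = the rest.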

Target in one assay: not listed separately
Put plainly: S. pneumoniae MK inhibitor potency, dose response, biochemical, PK/LDH-coupled NADH absorbance, hexokinase coupling counter-screen (AID 557). As to conditions: purified MK, PK/LDH coupled NADH absorbance 340 nm; measured here: coupling enzymes counter-screen (hexokinase).
For `CN(Cc1c(O)ccc2c1oc(=O)c1ccccc12)C1CCCCC1`, the IC50 was found to be 8.83 µM.

`CCn1nc(-c2cccs2)nc2c(=O)n(C)c(=O)nc1-2` displayed an IC50 of 9.46 µM.

With `O=c1c2ccccc2nc2n1CCC2`, the IC50 is over 1360 µM.

The target in a further assay is mevalonate kinase (Streptococcus pneumoniae D39). The assay is described as above. As to conditions: purified MK, PK/LDH coupled NADH absorbance 340 nm.
For `CCN(CC)S(=O)(=O)c1ccc(C(=O)OCC(=O)N2CCN(C(=O)c3ccco3)CC2)cc1`, the outcome was inactive.

On to `OCCN(Cc1ccccc1)Cc1cccc(F)c1`, for which the outcome was inactive.

As to `COc1ccc(Cl)cc1NC(=O)C1CCCN(S(=O)(=O)c2cccc3nonc23)C1` (centres undefined), the result was inactive.

Turning to `COc1ccc(-c2nc(C#N)c(N3CCOCC3)o2)cc1OC`, the outcome was inactive.

On to `N#C/C(=C(/O)COC(=O)CCc1ccc(S(=O)(=O)N2CCOCC2)cc1)c1nc2ccccc2[nH]1`, for which the outcome was inactive.

Turning to `CCOc1ccc(-n2c(-c3ccco3)n[nH]c2=S)cc1`, the outcome was inactive.

For `COc1cc(C2c3c(n[nH]c3C)C(=O)N2c2ccc(C)cc2)ccc1O` (centres undefined), the result was inactive.

Turning to `CCCCn1c(Cl)nc2c1c(=O)n(C)c(=O)n2C`, the result was inactive.

For `Oc1ccc(-c2n[nH]c(=S)n2Cc2ccccc2)cc1`, the result was inactive.

As to `COc1ccccc1NS(=O)(=O)c1cccc2cccnc12`, the result was inactive.

Consider `CC1CCN(S(=O)(=O)c2ccc(NC(=O)CN3CCN(C)CC3)cc2)CC1`, for which the result was inactive.

Regarding `CCn1nnc(NC(=O)c2cccc(-c3cc4ccccc4oc3=O)c2)n1`, the outcome was inactive.

`O=C(c1cc(-c2ccco2)on1)N1CCCc2ccccc21`: the result was inactive.

As for `COc1ccc(NC(=O)c2cc(-c3ccccc3OC)on2)cc1`, the outcome was inactive.

As for `CCOC(=O)c1[nH]c2ccccc2c1NC(=O)c1ccc(Br)o1`, the outcome was inactive.

Regarding `CCn1c(CC(C)C)n[nH]c1=S`, the result was inactive.

As for `O=C(c1ccc(F)cc1)N1CCC(N2CCCCCC2)CC1`, the outcome was inactive.

`O=c1c2ccccc2nnn1CSc1nnc(-c2cccs2)n1Cc1ccccc1`: the result was inactive.

In the case of `CC(C)OCCCNC(=O)CN1C(=O)CC(C)(C)S(=O)(=O)c2ccccc21`, the result was inactive.

In the case of `CCC(=O)Nc1ccc(NC(=O)c2ccccn2)cn1`, the outcome was inactive.

`COc1ccc(CN2C(=O)c3cccnc3C2Nc2cc(Cl)ccc2OC)cc1` (centres undefined): the IC50 was 5.71 µM.

Consider `COc1ccccc1N1CCN(Cc2ccc(OC)c3ccccc23)CC1`, for which the outcome was inactive.

Regarding `COc1cc(NC(=O)c2cc(CC(C)C)on2)c(OC)cc1Cl`, the outcome was inactive.

As for `COc1c(Br)cc2c(C)c(C(=O)O)oc2c1Br`, the result was inactive.

With `CC(C)C1Oc2ccccc2N(CC(=O)NCCCN2C(C)CCCC2C)C1=O` (centres undefined), the result was inactive.

Take `c1ccn2c(SCc3ccc4c(c3)OCO4)nnc2c1`: the result was inactive.

Regarding `O=C1C(=O)N(CCN2CCOCC2)C(c2ccncc2)/C1=C(/O)c1ccc2c(c1)OCO2` (centres undefined), the IC50 is 116 µM.

For `O=C(NCc1n[nH]c(=S)n1-c1ccccc1)c1ccco1`, the outcome was inactive.

Turning to `COc1ccc(-n2c(=O)c3c4c(sc3n(CC(=O)NCc3ccco3)c2=O)CCC4)c(OC)c1`, the outcome was inactive.

With `O=C(NCc1nnc(SCC(=O)N2CCN(c3ccccc3)CC2)o1)c1ccco1`, the outcome was inactive.

`Cc1nn(-c2ccccc2)c2c1C(O)n1c(nc3ccccc31)S2` (centres undefined): the result was inactive.

As for `CCCc1[nH]nc2c1C(c1ccc(OC)c(Cn3nnc4ccccc43)c1)C(C#N)=C(N)O2` (centres undefined), the result was inactive.

With `O=c1c(-c2ccccc2)c(O)c2cccc3c2n1CCC3`, the outcome was inactive.

For the molecule `COc1ccc(N(CC(=O)NCc2cccs2)S(=O)(=O)c2cccnc2)cc1`, the result was inactive.

As to `Cc1ccc2[nH]c(=O)c(CN(CCN3CCOCC3)C(=O)Nc3ccccc3F)cc2c1`, the result was inactive.

As for `N#Cc1ccc(-c2cccnc2)nc1SCC(=O)Nc1sc2c(c1C#N)CCC2`, the result was inactive.

Take `O=C1CN(C(=O)COC(=O)C2=COCCO2)c2ccccc2N1`: the outcome was inactive.

As to `Cc1occc1C(=O)Nc1nnc(C(F)(F)F)s1`, the result was inactive.

As to `Cc1c(S(=O)(=O)Nc2cccc(Cl)c2)c(=O)n(C)c(=O)n1C`, the outcome was inactive.

Consider `Cc1cc(NC(=O)c2cc(C3CC3)on2)no1`, for which the result was inactive.

On to `CC(C)NC(=O)CSc1nnc(-c2ccc(S(=O)(=O)N3CCCC3)cc2)n1CC1CCCO1` (centres undefined), for which the outcome was inactive.

Take `COC(=O)C1=C(C)OC(N)=C(C#N)C1c1cc(OC)c(OCC(N)=O)cc1Cl` (centres undefined): the outcome was inactive.

As to `CCN(CC)S(=O)(=O)c1ccc(NC2c3ncccc3C(=O)N2Cc2ccccc2)cc1` (centres undefined), the IC50 is 21.9 µM.

As for `CCOC(=O)c1cc2sc(C)cc2n1CC(=O)N1CCN(C(=O)c2ccco2)CC1`, the result was inactive.

In the case of `Cc1ccc(C(=O)COC(=O)CNC(=O)c2ccco2)cc1`, the result was inactive.

Take `Cc1cccc(NC(=O)c2cnc3sccn3c2=O)n1`: the result was inactive.

As for `Cc1ccc(NC2c3ncccc3C(=O)N2c2ccccc2C)cc1C` (centres undefined), the IC50 is 4.5 µM.

As to `Cc1noc(C)c1C(=O)OCC(=O)/C=C1\N(C)c2ccccc2C1(C)C`, the result was inactive.

With `COc1cccc(N2CCN(C3CC(=O)N(c4ccc(C)c(Cl)c4)C3=O)CC2)c1` (centres undefined), the outcome was inactive.

In the case of `COc1cc2c(cc1OC)CN(Cc1ccc(OC)c(C)c1OC)CC2`, the outcome was inactive.

As to `Cn1c(SCCOc2cccc(Cl)c2)nnc1-c1ccncc1`, the outcome was inactive.

With `CC1=NN(c2ccccc2)C(=O)C1`, the outcome was inactive.

In the case of `COc1ccc(CN2C(=O)c3cccnc3C2Nc2cc(Cl)c(OC)cc2OC)cc1` (centres undefined), the IC50 is 15.2 µM.

`COc1ccc2[nH]cc(C3N4CC5(C)CN3CC(C)(C4)C5=O)c2c1` (centres undefined): the result was inactive.

In the case of `O=c1oc2ccccc2c(O)c1CN1CCCCC1`, the result was inactive.

On to `CCOC(=O)c1c(C)n(C)c2ccc(O)c(CN3CCC(C)CC3)c12`, for which the result was inactive.

As for `CCCCOC(=O)CSC1=C(C#N)C(c2ccccc2OC)C(C#N)C(=O)N1` (centres undefined), the outcome was inactive.

On to `Cc1noc(C)c1CSc1nnc(C)c(=O)[nH]1`, for which the outcome was inactive.

Regarding `CCOc1cc(C(=O)NCCN2CCOCC2)cc(OCC)c1OCC`, the result was inactive.

In the case of `CN(C)c1ccc(CNCCC2(O)CCOC(C)(C)C2)cc1` (centres undefined), the outcome was inactive.

Turning to `N/C(CCN1CCOCC1)=N/O`, the result was inactive.

As for `Cc1ccc(CNC(=O)C2CCN(S(=O)(=O)c3c(C)noc3C)CC2)cc1`, the outcome was inactive.

With `O=C(NCc1cn2ccccc2n1)c1ccccc1`, the result was inactive.

With `COc1ncnc(OC)c1NC(=O)c1ccc(F)cc1`, the outcome was inactive.

`Cn1cccc1Cc1nnc(SCC(=O)NCc2ccc(F)cc2)n1-c1ccc(F)cc1`: the outcome was inactive.

For the molecule `COc1ccc(N(CC(=O)Nc2cc(OC)ccc2OC)S(C)(=O)=O)cc1`, the result was inactive.

Turning to `Cc1cc(N2CCN(C(=O)c3ccco3)CC2)n2ncnc2n1`, the result was inactive.

With `Cc1cccc(C(=O)Nc2ccccc2C(=O)OCc2c(C)noc2C)c1`, the result was inactive.

Regarding `Cc1ccsc1C1C(C(=O)O)c2ccccc2C(=O)N1C` (centres undefined), the outcome was inactive.

Turning to `COCCCn1c(SCC(=O)NCc2ccco2)nc2sc3c(c2c1=O)CCC3`, the outcome was inactive.

As for `O=C(COC(=O)Cc1ccc(S(=O)(=O)N2CCOCC2)s1)NCc1ccccc1`, the outcome was inactive.

`CCS(=O)(=O)NCCc1csc(C)n1`: the result was inactive.

On to `Cc1ccsc1CN1CCN(c2ccccn2)CC1`, for which the outcome was inactive.

For `Nc1nnc(CCS(=O)(=O)c2cc(Cl)ccc2Cl)s1`, the outcome was inactive.

For the molecule `CCn1c(SCC(=O)c2ccccc2)nc2c(c1=O)SC(C)C2` (centres undefined), the result was inactive.

On to `CN1CCN(c2nc3c(c(=O)n(C)c(=O)n3C)n2Cc2cccc3ccccc23)CC1`, for which the outcome was inactive.

Take `CC(=O)NC(CCS(C)(=O)=O)C(=O)Nc1c(C)cccc1C` (centres undefined): the outcome was inactive.

`CCOC(=O)C1CCN(C(=O)CN(c2ccc(OC)c(OC)c2)S(=O)(=O)c2ccccc2)CC1`: the result was inactive.

Consider `COc1ccc2nc(NC(=O)C3CCCN(S(=O)(=O)c4cccc5nonc45)C3)sc2c1` (centres undefined), for which the outcome was inactive.

As for `Cn1cnnc1SCC(=O)n1c2ccccc2c2ccccc21`, the result was inactive.

As for `CN(CCC(=O)Nc1ccc2c(c1)OCO2)Cc1ccccc1`, the result was inactive.

(Values after PubChem BioAssay AID557 (SRMLSC, 2006).)
